One series relates to HBV. Briefly: microbe, parasite or virus in culture. On the procedure:
Direct inhibition of viral replication was evaluated by monitoring the levels of secreted HBV DNA and the levels of HBV surface antigen (HBsAg) in cultures containing HBV infected HepaRG cells.
After three days incubation, the combined medium was replaced with differentiation medium and the cells were maintained in the differentiation medium for an additional 2 to 4 weeks. The differentiation medium was renewed every 2 to 3 days throughout the incubation period. Differentiated HepaRG cells (HepaRGd) display hepatocyte-like cell islands surrounded by monolayer of biliary-like cells. Prior to HBV infection and compound treatment, HepaRGd cells were seeded into collagen I coated 96-well plates (Gibco, Cat# A11428-03) at 50,000 to 60,000 cells per well. Cells were allowed to recover their differentiated phenotype in 96-well plates for at least 1 week after plating prior to HBV infection.
HBV inoculum was collected from HepG2.2.15 cultured cells, a cell line that supports HBV (genotype D, strain ayw) replication and virion secretion as disclosed in Sells M A., et al., PNAS, 84(4): 1005-1009. HepG2.2.15 cells were maintained in DMEM+GlutaMAX-I (Invitrogen) containing 1× Pen/Strep (Invitrogen), 10% FBS, and 0.25 mg/ml G-418 (Invitrogen) using hyperflasks (Corning) pre-coated with collagen I (BD Biosciences). Upon reaching confluency, HepG2.2.15 culture media was replaced with DMEM+GlutaMAX-I containing 1× Pen-Strep, 2.5% FBS, and 1% DMSO for 3 days and then replaced with DMEM+GlutaMAX-I containing 1× Pen-Strep and 1% DMSO. The 1% DMSO containing media was collected every 3 to 4 days over a two week period and HBV infectious virions and subviral particles were pelleted by ultracentrifugation through a 20% sucrose cushion in a Ti 45 Beckman rotor at 45,000 rpm for 3 hours at 4° C. The pellets were resuspended in WEM at a concentration of 10^8-10^9 genome equivalents (GE) per ml, determined by real time PCR as described below using a genotype D HBV containing plasmid DNA as an internal standard. To evaluate the infectivity of the inoculum, HepaRGd cells in 96-well plates were infected in differentiation medium containing 50 to 200 GE/cell and 4% PEG 8000 (PolyEthylene Glycol 8000, Sigma, Cat# P5413-500G) for 16 hr at 37° C. At the end of the infection, HBV inoculum was removed and cells were washed 3 times with differentiation medium. Differentiation medium was replenished every 2 to 3 days and HBV replication was monitored by measuring secreted HBV DNA, hepatitis B surface (HBsAg) and/or e (HBeAg) antigens.
HBsAg was detected from 50 μL of HBV infected HepaRG supernatants using the HBsAg chemiluminescence immunoassay (CLIA) kit following instructions as recommended by the manufacturer (Autobio Diagnostics Co., Zhengzhou, China). HBV DNA was extracted from 50 μL of HBV infected HepaRGd supernatants using the MagNA Pure 96 DNA and Viral NA Small Volume Kit (Roche, Cat#05 467 497 001). […] All PCR reactions were performed using the ViiA7 Real Time PCR system (Life Technologies).
Both direct and indirect inhibitory activity of HBV replication was measured. […] Aliquots of these reagents were added to independent wells of a 96-well culture plate containing HBV infected HepaRGd cells on day 4 post infection. The final concentration of DMSO in each well was 2%. The HepaRGd cells used in the inhibition study were maintained in differentiation media containing 2% DMSO.

Series [1] concerns HBV infected HepaRGd cells. Briefly: Cell viability by CellTiter-Glo, direct treatment. Format: cell-based. In general terms: ATP-based viability assays read luminescence as a measure of living cells.
Series [2] is described as follows: Solid state stability by UPLC. Format: physicochemical. To be noted: for T0 % Area Formula I: free base forms. On the procedure:
Solid state stability studies were performed by storing a test sample of the co-crystal at different temperatures and under conditions of different relative humidity for a period of one to three months. Stability was judged by Ultra performance liquid chromatography (UPLC) analysis of the test co-crystals. Percent degradation of API in a test sample of the co-crystal was calculated as follows: Co-crystals in accordance with the invention are fairly stable across the temperature range used in the study. […] Without ascribing to a particular theory, crystallinity may contribute to the stability of inventive co-crystals. Table 7 illustrates data from a stability of a Formula I glutaric acid co-crystal in accordance with the invention across a range of temperatures and in the presence of 75% relative humidity at 40° C. […] Further supporting the hypothesis that crystallinity contributes to increased stability was provided by comparing the amorphous form of the free base of a Formula I compound to the crystalline form of a Formula I compound as illustrated in Table 8.

Series [3] is described as follows: Pharmacokinetic study after oral administration. It is filed as in vivo, cynomolgus monkeys. As to conditions: monkeys, oral dose of 10 mg/kg, compared with glutaric acid co-crystal. The source says: Studies were undertaken to compare the pharmacokinetics (PK) of the glutaric acid co-crystal to the PK of the tosylate salt of the Formula I compound. A 3% solution of Blanose 7LF PM without preservatives was used to formulate the glutaric acid co-crystal and tosylate salt. Results from a pharmacokinetic study in cynomolgus monkeys indicate that the plasma concentration of the glutaric acid co-crystal was greater than the corresponding tosylate salt following oral administration of each compound.
In this study, each compound was administered orally at a dose of 10 mg/kg to cynomolgus monkeys. Following administration, blood was obtained from each test subject at 0 min, 60 min, 120 min and 180 minutes. After separating the plasma from whole blood an aliquot to each plasma sample was denature by the addition of 70% ethanol. The denatured protein was pelleted by centrifugation and the supernatant was collected and dried using a stream of dry nitrogen gas. The pellet thus obtained was re-constituted in water containing 0.1% formic acid and the re-constituted mixture was analyzed by UPLC using a HSS-T3 (high strength silica) column or an YMC TriartC-18 column. Gradient elution using a mixture of water containing 0.1% HCOOH (mobile phase-A) and acetonitrile containing 0.1% HCOOH (mobile phase-B) was employed for analysis of the pharmacokinetic (PK) samples.

Series [4] can be described thus: BCS classification of co-crystals (aqueous solubility). It is filed as physicochemical. To be noted: for BCS Class (Stahl et al): Table 10.
Series [5] can be described thus: Hygroscopicity of co-crystals. Format: physicochemical.
A short description of series [6]: Excipient compatibility assay (COMPASS), ternary mixtures. Format: physicochemical. To be noted: glutaric acid co-crystal ternary mixtures. Here is the method:
Compatibility of the inventive co-crystals with pharmaceutically acceptable excipients was determined by the classic compatibility assay (COMPASS). According to this method, excipient compatibility was investigated by physically mixing the inventive glutaric acid co-crystals with a single pharmaceutical excipient so as to form a binary mixture or by physically mixing the inventive glutaric acid co-crystals with mixtures containing two or more excipients (ternary mixture). Each binary mixture contained 5% by weight of the Formula I compound, whereas the weight percent of the Formula I compound in a ternary mixture was 50%. The test mixtures were stored at 50° C. for 4 weeks or at a temperature of 40° C. and a relative humidity of 75% for 4 weeks.
The inventive co-crystals are compatible with fillers and/or excipients commonly used in the manufacture of pharmaceutical compositions. Table 4 illustrates the results of a compatibility study using ternary mixtures of the inventive glutaric acid co-crystal of the Formula I compound. Table 5 illustrates the results for a similar study using ternary mixtures of the tosylate salt of the Formula I compound.
Ternary mixtures comprising the inventive glutaric acid co-crystal or the tosylate salt of a Formula I compound contained the following excipients in proportions illustrated in Table 6 below.

Where [7] appears, read: 4 weeks/40° C./ambient conditions (closed container).
Where [8] appears, read: read-out: EC50 against HBV DNA secretion, HBV infected HepaRG cell assay.

The results in this text go back to US9676793B2, “Co-crystals of 5-amino-2-oxothiazolo[4,5-d]pyrimidin-3(2H)-yl-5-hydroxymethyl tetrahydrofuran-3-yl acetate and methods for preparing and using the same” (Hoffmann-La Roche Inc., priority 2014, dated 2017).

Like-named read-outs stand apart in the source and are kept apart here.

Turning to “IP-10: IFNγ-induced protein 10, chemokine”, the EC50 (usually the midpoint of the concentration-response curve) in the series with HBV (read-out: EC50, HBV replication inhibitory effect, highest concentration tested) is > 115 nM. Moreover, the CC50 – broadly, the concentration giving 50% cytotoxicity – in series [1] is > 115 nM.

Take `CC(=O)O[C@@H]1C[C@@H](CO)O[C@H]1n1c(=O)sc2cnc(N)nc21` [free base Formula I-amorphous, 5-amino-2-oxothiazolo[4,5-d]pyrimidin-3(2H)-yl-5-hydroxymethyl tetrahydrofuran-3-yl acetate]: in series [2] (4 weeks/40° C./75% r.h.), the “% Area Formula I” value came out at 86.34 % Area, the “% degradation” value was determined as 13.57% and the stability grade result is given as “very”. For the same molecule, in series [2] (setting [7]), the “% Area Formula I” value stood at 98.89 % Area, the “% degradation” value is listed as 1.011% and the stability grade result is recorded as “(moderately”. Also, the “T0 % Area Formula I” value in series [2] is on record as 99.90 % Area.

Regarding IL-6: interleukin 6, cytokine, the concentration giving a half-maximal response (EC50) with HBV (setting [8]) came out at 0.027 ± 0.0073 nM; with HBV (read-out: EC50 against secretion of HBsAg, HBV infected HepaRG cell assay) it was 0.26 ± 0.02 nM.

Regarding `CC(=O)OC1CC(CO)OC1n1c(=O)sc2cnc(N)nc21.Cc1ccc(S(=O)(=O)O)cc1` (stereo not drawn) [Tosylate Salt, 5-amino-2-oxothiazolo[4,5-d]pyrimidin-3(2H)-yl-5-hydroxymethyl tetrahydrofuran-3-yl acetate], the “levels of the de-acetylated form of the Formula I compound and biologically active species in plasma” value in series [3] was “lower levels”.

As for “5-amino-3-(2′-O-acetyl-3′-deoxy-β-D-ribofuranosyl)-3H-thiazolo[4,5]pyrimidine-2-one [glutaric acid co-crystal]”, the “BCS Class” value in series [4] (Table 1) is 1. In addition, the “BCS Class (Stahl et al)” value in series [4] worked out at 1. In addition, the Hygroscopicity entry in series [5] (grade in words) is on record as “slightly”; in series [5] (mass change ±), “(±0.3%-m/m)”.

`CC(=O)O[C@@H]1C[C@@H](CO)O[C@H]1n1c(=O)sc2cnc(N)nc21` [free base Formula I-crystalline, 5-amino-2-oxothiazolo[4,5-d]pyrimidin-3(2H)-yl-5-hydroxymethyl tetrahydrofuran-3-yl acetate]: the “% Area Formula I” value in series [6] (4 weeks at 40° C./75% RH) is 99.740 % area; in series [6] (4 weeks at 50° C.) it was 99.670 % area; in series [6] (Reference 4 weeks at 2-8° C.), 99.710 % area; in series [2] (4 weeks/40° C./75% r.h.), 99.56 % Area; in series [2] (setting [7]), 99.52 % Area. Also, the “% degradation” value in series [6] (4 weeks at 40° C./75% RH) is −0.030%; in series [6] (4 weeks at 50° C.), 0.040%; in series [2] (4 weeks/40° C./75% r.h.), 0.15%; in series [2] (setting [7]), 0.19%. In addition, the Stability entry in series [6] (4 weeks at 40° C./75% RH) and in series [6] (4 weeks at 50° C.) was “Fairly” throughout. Moreover, the stability grade result in series [2] (4 weeks/40° C./75% r.h.) was “stable”; in series [2] (setting [7]), “(stable)”. In series [2], the “T0 % Area Formula I” value was 99.71 % Area.

As to TNF-α, the EC50 is 0.085 ± 0.046 nM in the series on HBV (setting [8]) and 0.32 nM in the series with HBV (read-out: EC50 against HBsAg secretion, HBV infected HepaRG cell assay, unit inferred).

For `Nc1ccccc1C(=O)O` [2-aminobenzoic acid], the Hygroscopicity result is on record as “slightly” in series [5] (grade in words) and “(±1.8%-m/m)” in series [5] (mass change ±).

On to Fumaric acid, for which the Hygroscopicity entry in series [5] (grade in words) is “slightly”; in series [5] (mass change ±), “(±0.6%-m/m)”.

Turning to `O=C(O)CCC(=O)C(=O)O` [α-ketoglutaric acid], in series [4], the “BCS Class (Stahl et al)” value came out at 1. The Hygroscopicity entry was “slightly” in series [5] (grade in words) and “(±0.8%-m/m)” in series [5] (mass change ±).
